Data taken from ChEMBL document CHEMBL5331073, “Discovery of novel 7,7-dimethyl-6,7-dihydro-5H-pyrrolo[3,4-d]pyrimidines as ATR inhibitors based on structure-based drug design” (Eur J Med Chem, 2023).

Experiments:
[1] = molecular target: T1, Serine/threonine-protein kinase ATR (Homo sapiens, UniProt Q13535); assay: Inhibition of ATR (unknown origin) using peptide as substrate at 0.1 uM preincubated for 10 mins followed by substrate addition by microplate reader analysis
Target sequence in this assay (Q13535 whole entry, looked up): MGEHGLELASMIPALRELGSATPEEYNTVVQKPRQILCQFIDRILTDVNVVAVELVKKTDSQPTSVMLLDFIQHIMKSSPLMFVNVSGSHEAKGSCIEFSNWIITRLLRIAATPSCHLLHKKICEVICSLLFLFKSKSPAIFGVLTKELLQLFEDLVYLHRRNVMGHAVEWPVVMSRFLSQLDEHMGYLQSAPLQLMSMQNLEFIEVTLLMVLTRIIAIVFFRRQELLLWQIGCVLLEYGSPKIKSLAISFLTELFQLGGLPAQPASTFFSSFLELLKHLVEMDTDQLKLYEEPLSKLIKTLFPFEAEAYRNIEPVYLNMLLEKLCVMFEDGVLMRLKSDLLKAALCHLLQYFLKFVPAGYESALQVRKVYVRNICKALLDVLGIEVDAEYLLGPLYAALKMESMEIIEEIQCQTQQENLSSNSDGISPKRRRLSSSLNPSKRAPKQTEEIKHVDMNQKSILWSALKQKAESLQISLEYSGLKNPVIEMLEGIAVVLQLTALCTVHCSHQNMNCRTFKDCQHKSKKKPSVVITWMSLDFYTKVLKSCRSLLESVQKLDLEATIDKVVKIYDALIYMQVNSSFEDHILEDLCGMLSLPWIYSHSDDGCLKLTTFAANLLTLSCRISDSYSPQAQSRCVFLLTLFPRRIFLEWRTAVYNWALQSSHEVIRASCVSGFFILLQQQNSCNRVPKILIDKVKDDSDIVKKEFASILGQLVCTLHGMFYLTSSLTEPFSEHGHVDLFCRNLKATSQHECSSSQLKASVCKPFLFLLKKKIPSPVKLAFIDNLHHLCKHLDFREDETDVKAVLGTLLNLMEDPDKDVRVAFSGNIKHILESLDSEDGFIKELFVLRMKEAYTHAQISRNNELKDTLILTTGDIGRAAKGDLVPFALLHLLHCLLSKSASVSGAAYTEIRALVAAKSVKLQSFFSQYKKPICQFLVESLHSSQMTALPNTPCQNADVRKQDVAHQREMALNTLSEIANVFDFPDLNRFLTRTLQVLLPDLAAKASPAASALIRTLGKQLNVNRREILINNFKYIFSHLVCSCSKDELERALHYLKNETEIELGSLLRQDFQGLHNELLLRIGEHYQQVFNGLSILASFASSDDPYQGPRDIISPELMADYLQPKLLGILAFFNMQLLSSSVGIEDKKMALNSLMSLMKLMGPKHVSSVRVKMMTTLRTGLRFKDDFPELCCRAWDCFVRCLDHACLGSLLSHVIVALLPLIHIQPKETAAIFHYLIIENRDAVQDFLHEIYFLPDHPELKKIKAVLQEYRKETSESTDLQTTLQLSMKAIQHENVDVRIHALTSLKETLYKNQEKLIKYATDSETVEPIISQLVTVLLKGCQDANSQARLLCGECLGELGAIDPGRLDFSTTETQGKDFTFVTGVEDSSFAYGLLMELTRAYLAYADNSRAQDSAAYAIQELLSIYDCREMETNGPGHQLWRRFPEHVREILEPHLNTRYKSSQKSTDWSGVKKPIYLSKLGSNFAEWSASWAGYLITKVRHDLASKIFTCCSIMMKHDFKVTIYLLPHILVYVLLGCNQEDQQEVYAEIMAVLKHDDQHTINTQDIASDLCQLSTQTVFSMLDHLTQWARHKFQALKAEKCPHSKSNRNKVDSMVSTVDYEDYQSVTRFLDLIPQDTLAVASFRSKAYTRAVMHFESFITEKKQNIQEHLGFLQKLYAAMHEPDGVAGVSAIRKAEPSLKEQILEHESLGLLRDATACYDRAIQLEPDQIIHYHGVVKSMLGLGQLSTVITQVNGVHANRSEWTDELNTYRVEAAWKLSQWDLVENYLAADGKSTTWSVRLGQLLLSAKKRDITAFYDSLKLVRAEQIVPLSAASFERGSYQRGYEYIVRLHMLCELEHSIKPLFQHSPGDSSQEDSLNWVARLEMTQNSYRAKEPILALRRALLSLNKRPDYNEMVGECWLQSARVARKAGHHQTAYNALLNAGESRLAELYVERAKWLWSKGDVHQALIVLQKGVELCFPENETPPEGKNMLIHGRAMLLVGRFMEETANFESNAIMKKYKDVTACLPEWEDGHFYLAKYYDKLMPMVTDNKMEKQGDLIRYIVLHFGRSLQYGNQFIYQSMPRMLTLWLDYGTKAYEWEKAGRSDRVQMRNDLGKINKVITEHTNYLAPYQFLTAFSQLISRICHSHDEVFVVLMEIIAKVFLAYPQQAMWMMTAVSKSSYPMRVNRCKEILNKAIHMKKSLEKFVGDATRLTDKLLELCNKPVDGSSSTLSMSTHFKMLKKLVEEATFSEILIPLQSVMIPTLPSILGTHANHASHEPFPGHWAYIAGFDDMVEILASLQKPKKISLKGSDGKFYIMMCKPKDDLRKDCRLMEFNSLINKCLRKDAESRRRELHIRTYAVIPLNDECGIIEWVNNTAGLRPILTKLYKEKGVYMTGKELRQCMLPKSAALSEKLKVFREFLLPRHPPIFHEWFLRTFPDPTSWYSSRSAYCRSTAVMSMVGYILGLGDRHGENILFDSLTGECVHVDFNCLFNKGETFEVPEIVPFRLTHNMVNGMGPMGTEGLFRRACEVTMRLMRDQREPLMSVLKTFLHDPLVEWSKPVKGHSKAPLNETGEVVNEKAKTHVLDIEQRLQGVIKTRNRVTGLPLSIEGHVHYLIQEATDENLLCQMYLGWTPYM

[2] = molecular target: T1, Serine/threonine-protein kinase ATR; assay: Inhibition of ATR (unknown origin) using peptide as substrate preincubated for 10 mins followed by substrate addition by microplate reader analysis
Target sequence in this assay (Q13535 whole entry): as the sequence (Q13535 whole entry, looked up) above

[3] = molecular target: Serine/threonine-protein kinase mTOR (Homo sapiens, UniProt P42345); assay: Inhibition of mTOR (unknown origin) using peptide as substrate preincubated for 10 mins followed by substrate addition by microplate reader analysis
[4] = system: LoVo; assay: Antiproliferative activity against ATM-deficient human LoVo cells assessed as reduction in cell proliferation incubated for 3 days by MTT assay; format: functional, cell-based; conditions: 72 h
[5] = system: HT-29; assay: Antiproliferative activity against ATM-proficient human HT-29 cells assessed as reduction in cell proliferation incubated for 3 days by MTT assay; format: functional, cell-based; conditions: HT-29, 72 h
[6] = system: LoVo; assay: Antiproliferative activity against ATM-deficient human LoVo cells assessed as reduction in cell proliferation at 0.1 to 25 uM incubated for 3 days by MTT assay; format: functional, cell-based; conditions: dose 0.1-25 µM, time 3.0 day
[7] = system: HT-29; assay: Antiproliferative activity against ATM-proficient human HT-29 cells assessed as reduction in cell proliferation at 0.5 to 22 uM incubated for 3 days by MTT assay; format: functional, cell-based; conditions: dose 0.5-22 µM, time 3.0 day
[8] = Half life in Sprague-Dawley rat at 1 mg/kg, iv and measured upto 24 hrs by LC-MS analysis; format: ADME, organism-based; conditions: in vivo
[9] = MRT (0 to infinity) in Sprague-Dawley rat at 1 mg/kg, iv and measured upto 24 hrs by LC-MS analysis; format: ADME, organism-based; conditions: in vivo
[10] = MRT(t) in Sprague-Dawley rat at 1 mg/kg, iv and measured upto 24 hrs by LC-MS analysis; format: ADME, organism-based; conditions: in vivo
[11] = AUC(0 to infinity) in Sprague-Dawley rat at 1 mg/kg, iv and measured upto 24 hrs by LC-MS analysis; format: ADME, organism-based; set-up: time < 24 hrs, dose 1 mg/kg, route iv; conditions: in vivo
[12] = AUCt in Sprague-Dawley rat at 1 mg/kg, iv and measured upto 24 hrs by LC-MS analysis; format: ADME, organism-based; set-up: dose 1 mg/kg, time < 24 hrs, route iv; conditions: in vivo
[13] = Clearance in Sprague-Dawley rat at 1 mg/kg, iv and measured upto 24 hrs by LC-MS analysis; format: ADME, organism-based; conditions: in vivo
[14] = Volume of distribution at steady state in Sprague-Dawley rat at 1 mg/kg, iv and measured upto 24 hrs by LC-MS analysis; format: ADME, organism-based; conditions: in vivo, read-out: Vdss
[15] = Half life in Sprague-Dawley rat at 5 mg/kg, po and measured upto 24 hrs by LC-MS analysis; format: ADME, organism-based; conditions: in vivo
[16] = Tmax in Sprague-Dawley rat at 5 mg/kg, po and measured upto 24 hrs by LC-MS analysis; format: ADME, organism-based; conditions: in vivo
[17] = Cmax in Sprague-Dawley rat at 5 mg/kg, po and measured upto 24 hrs by LC-MS analysis; format: ADME, organism-based; set-up: time < 24 hrs, dose 5 mg/kg, route po; conditions: in vivo
[18] = AUCt in Sprague-Dawley rat at 5 mg/kg, po and measured upto 24 hrs by LC-MS analysis; format: ADME, organism-based; set-up: time < 24 hrs, dose 5 mg/kg, route po; conditions: in vivo
[19] = AUC (0 to infinity) in Sprague-Dawley rat at 5 mg/kg, po and measured upto 24 hrs by LC-MS analysis; format: ADME, organism-based; set-up: time < 24 hrs, dose 5 mg/kg, route po; conditions: in vivo
[20] = MRT(t) in Sprague-Dawley rat at 5 mg/kg, po and measured upto 24 hrs by LC-MS analysis; format: ADME, organism-based; conditions: in vivo
[21] = MRT (0 to infinity) in Sprague-Dawley rat at 5 mg/kg, po and measured upto 24 hrs by LC-MS analysis; format: ADME, organism-based; conditions: in vivo
[22] = Oral bioavailability in Sprague-Dawley rat at 5 mg/kg and measured upto 24 hrs by LC-MS analysis; format: ADME, organism-based; conditions: in vivo
[23] = in vitro; conditions: human, liver microsomes
[24] = in vitro; conditions: rat, liver microsomes
[25] = in vitro; conditions: human, liver microsomes; remark: listed apart in the source
[26] = in vitro; conditions: rat, liver microsomes; remark: listed apart in the source
[27] = in vitro; conditions: human, liver microsomes; remark: listed apart in the source
[28] = in vitro; conditions: rat, liver microsomes; remark: listed apart in the source
[29] = system: HCT-116; assay: Antiproliferative activity against ATM-proficient human HCT-116 cells assessed as reduction in cell viability incubated for 3 days by MTT assay; format: functional, cell-based; conditions: HCT-116, 72 h
[30] = system: A549; assay: Antiproliferative activity against ATM-proficient human A549 cells assessed as reduction in cell viability incubated for 3 days by MTT assay; format: functional, cell-based; conditions: A549, 72 h

Row | IC50 [2] | IC50 [4] | IC50 [5] | half-life [8] | MRT inf [9] | MRT last at 24 h [10] | AUC(0-inf) [11] | AUC(0-t) at 24 h [12] | clearance [13] | Vd [14] | half-life [15] | Tmax [16] | half-life at 1 h, 1 µM [23] | half-life at 1 h, 1 µM [24] | microsomal CLint at 1 h, 1 µM [25] | microsomal CLint at 1 h, 1 µM [26] | CLint scaled at 1 h, 1 µM [27] | CLint scaled at 1 h, 1 µM [28] | Structure (SMILES) | Activity [6] | Activity [7] | other results
1 | 4 nM | 92 nM | 449 nM | 5.49 h | 6.99 h | 5.21 h | 646 ng·h/mL | 603 ng·h/mL | 26 mL/min/kg | 10.8 L/kg | 4.38 h | 2 h | 0.428 h | 3.28 h | 53.9 µL/min/mg | 7.06 µL/min/mg | 50.9 mL/min/kg | 12.7 mL/min/kg | C[C@@H]1COCCN1c1nc(-c2cccc3[nH]ccc23)nc2c1CN(C(=O)c1ccc(S(C)(=O)=O)cc1)C2(C)C | Dose-Dependent Effect | Dose-Dependent Effect | Cmax [17]: 24.1 ng/mL; AUC(0-t) at 24 h [18]: 185 ng·h/mL; AUC(0-inf) [19]: 203 ng·h/mL; MRT last at 24 h [20]: 5.56 h; MRT inf [21]: 7.1 h; bioavailability [22]: 6.1%
2 |  |  | > 30000 nM |  |  |  |  |  |  |  |  |  |  |  |  |  |  |  | CC(C)n1c(=O)n(C)c2cnc3cc(F)c(-c4ccc(OCCCN5CCCCC5)nc4)cc3c21 [AZD-1390] |  |  | IC50 [29]: 10500 nM; IC50 [30]: 43000 nM
3 | 4 nM | 112 nM | 431 nM |  |  |  |  |  |  |  |  |  | 0.0685 h | 0.192 h | 339 µL/min/mg | 121 µL/min/mg | 320 mL/min/kg | 218 mL/min/kg | CC(=O)c1cccc(C(=O)N2Cc3c(N4CCOC[C@H]4C)nc(-c4cccc5[nH]ccc45)nc3C2(C)C)c1 | Dose-Dependent Effect | Dose-Dependent Effect | 

The next lines start with the compound.

Row | Structure (SMILES) | IC50 [2] | IC50 [4] | IC50 [5] | half-life [8] | MRT inf [9] | MRT last at 24 h [10] | AUC(0-inf) [11] | AUC(0-t) at 24 h [12] | clearance [13] | Vd [14] | half-life [15] | Tmax [16] | half-life at 1 h, 1 µM [23] | half-life at 1 h, 1 µM [24] | microsomal CLint at 1 h, 1 µM [25] | microsomal CLint at 1 h, 1 µM [26] | CLint scaled at 1 h, 1 µM [27] | CLint scaled at 1 h, 1 µM [28] | Activity [6] | Activity [7] | other results
4 | C[C@@H]1COCCN1c1nc(-c2cccc3[nH]ccc23)nc2c1CCN(S(C)(=O)=O)C2(C)C | 18 nM |  |  |  |  |  |  |  |  |  |  |  |  |  |  |  |  |  |  |  | inhibition [1]: 88.7%; IC50 [3]: 157 nM
5 | COc1cccc(C(=O)N2Cc3c(N4CCOC[C@H]4C)nc(-c4cccc5[nH]ccc45)nc3C2(C)C)c1 | 4 nM | 151 nM | 357 nM | 1.28 h | 1.08 h | 1.02 h | 840 ng·h/mL | 835 ng·h/mL | 20.1 mL/min/kg | 1.3 L/kg | 1.87 h | 0.667 h | 0.447 h | 1.17 h | 51.6 µL/min/mg | 20.1 µL/min/mg | 48.8 mL/min/kg | 36.2 mL/min/kg |  |  | Cmax [17]: 86.2 ng/mL; AUC(0-t) at 24 h [18]: 323 ng·h/mL; AUC(0-inf) [19]: 342 ng·h/mL; MRT last at 24 h [20]: 2.7 h; MRT inf [21]: 3.08 h; bioavailability [22]: 8.1%
6 | CC(=O)c1ccc(C(=O)N2Cc3c(N4CCOC[C@H]4C)nc(-c4cccc5[nH]ccc45)nc3C2(C)C)cc1 | 6 nM | 96 nM | 307 nM |  |  |  |  |  |  |  |  |  | 0.0823 h | 0.812 h | 281 µL/min/mg | 28.5 µL/min/mg | 265 mL/min/kg | 51.4 mL/min/kg | Dose-Dependent Effect | Dose-Dependent Effect | 
